{
  "source": "patent US8703964B2",
  "about": "“Bendamustine cyclopolysaccharide compositions” (Supratek Pharma Inc., priority 2009, dated 2014)",
  "key": {"[1]": {"experiment": "Pharmacokinetics of bendamustine dosed to rats, composition with SBECD and LMWP (Example 25)", "format": "in vivo, Female Sprague-Dawley rats", "conditions": "i.v. 10 mg/kg", "experimental": "Control: 5 mg/mL bendamustine hydrochloride, 10.2 mg/mL of mannitol in 0.9% NaCl; dose of 10 mg/kg\n5 mg/mL bendamustine hydrochloride, 20% w/w sodium sulfobutyl ether β-cyclodextrin, 10.2 mg/g mannitol in water; dose of 10 mg/kg.\n5 mg/mL bendamustine hydrochloride, 20% w/w sodium sulfobutyl ether β-cyclodextrin, 1% LMWP, 10.2 mg/g mannitol in water; dose of 10 mg/kg.\nFemale Sprague-Dawley rats (250-350 g). The animals were kept three per cage with an air filter cover under light (12 h light/dark cycle, light on at 06 h00) and controlled temperature 22° C.+/−1° C. All manipulations with the animals were performed under a sterilized laminar hood. The animals had ad libitum access to Purina mouse chow and water. The animals were fasted overnight and anesthetized, before dosing. Dosing and Sampling: The bendamustine compositions and control were administered intravenously to rats via a tail vein. Blood samples were collected 5, 15, 30, 45 min, 1, 1.5, 2, 3 and 4 hrs post-injection. The rats were anesthetized by general inhalation of isoflurane. The blood samples were collected from the jugular vein with a heparinized tube and kept on ice. The sample was immediately centrifuged, and the plasma separated. The plasma samples were immediately extracted. Sample Extraction and Analysis: The plasma samples 0.100 mL were transferred to plastic tubes. The samples were extracted with 0.400 mL of 100 mM HCl in acetonitrile while being shaken vigorously for 30 seconds. The samples were centrifuged at 10000 RPM for 5 minutes. The supernatant was separated. The samples were frozen in dry ice and kept at −80° C. until HPLC analysis. The aliquots of 20 microliters were injected into HPLC for analysis. The HPLC Conditions: C18 reversed phase column 50×4.6 mm, Symmetry/Shield 3.5 micrometer Column temperature 30° C. Flow rate 1.5 mL/min Injection volume 20 microliters Fluorescence detection at wavelengths: excitation 327 nm, emission 420 nm Mobile phase: Buffer A: 5% acetonitrile 0.1% TFA Buffer B: 90% acetonitrile 0.1% TFA Run time: 10 min The pharmacokinetic profiles of Bendamustine for tested composition versus the control is shown in Table 9 below."}, "[2]": {"test_system": "RPMI8226 cells", "experiment": "Cytotoxicity of bendamustine compositions pre-incubated with media, WST-1 (Example 23)", "format": "cell-based", "conditions": "for Cell growth: RPMI8226, 72 h; for IC50: Homo sapiens, RPMI-8226, read-out: IC50 of bendamustine, RPMI8226", "experimental": "BM and SBECD/LMWP formulation (40 mg/ml BM in 20% SBECD, 1% LMWP) were incubated in DMEM medium containing 10% FBS for 0, 1, or 4 h and then were added in varying concentrations to RPMI8226 cells. During BM treatment, concentrations of SBECD and LMWP were kept constant in culture medium at […], respectively. Cells were then grown for 72 h. The drug cytotoxicity was evaluated using WST-1 procedure."}, "[3]": {"test_system": "H460 cells", "experiment": "Cytotoxicity of bendamustine composition comprising SBECD and LMWP, WST-1 (Example 24)", "format": "cell-based", "conditions": "Homo sapiens, NCI-H460, 72 h, read-out: drug cytotoxicity (WST-1), Table 8", "experimental": "(§1) RPMI8226, H69, MDA-MB-231, and H460 cells were maintained in appropriate medium, containing 10% FBS and antibiotics. 24 h after plating, bendamustine, and bendamustine formulated in SBECD/LMWP (40 mg/ml BM in 20% SBECD, 1% LMWP) were added in different concentrations to cell cultures and cells were grown for three days. The drug cytotoxicity was evaluated using WST-1 procedure."}, "[4]": {"test_system": "H69 cells", "experiment": "Cytotoxicity of bendamustine composition comprising SBECD and LMWP, WST-1 (Example 24)", "format": "cell-based", "conditions": "Homo sapiens, NCI-H69, 72 h, read-out: drug cytotoxicity (WST-1), Table 8", "experimental": "as §1"}, "[5]": {"test_system": "MDA-MB-231 cells", "experiment": "Cytotoxicity of bendamustine composition comprising SBECD and LMWP, WST-1 (Example 24)", "format": "cell-based", "conditions": "Homo sapiens, MDA-MB-231, 72 h, read-out: drug cytotoxicity (WST-1), Table 8", "experimental": "as §1"}, "[6]": {"test_system": "RPMI8226 cells", "experiment": "Cytotoxicity of bendamustine composition comprising SBECD and LMWP, WST-1 (Example 24)", "format": "cell-based", "conditions": "Homo sapiens, RPMI-8226, 72 h, read-out: drug cytotoxicity (WST-1), Table 8", "experimental": "as §1"}},
  "data": [
    {"smiles": "Cn1c(CCCC(=O)O)nc2cc(N(CCCl)CCCl)ccc21", "note": "[BM, 4-[5-[bis(2-chloroethyl)amino]-1-methylbenzimidazol-2-yl]butanoic acid]", "values": [
      {"measurement": "concentration at 1 h", "setting": "[1]; female, Sprague-Dawley, rat, plasma, iv, 1 h post injection, read-out: Concentration of bendamustine in rat plasma, Mean (SEM)", "value": 47, "unit": "ng/mL"},
      {"measurement": "concentration at 3 h", "setting": "[1]; female, Sprague-Dawley, rat, plasma, iv, 3 h post injection, read-out: Concentration of bendamustine in rat plasma, Mean (SEM)", "value": 0, "unit": "ng/mL"},
      {"measurement": "Concentration of bendamustine in rat plasma, Mean (SEM)", "setting": "[1]; 0.08 h post injection", "value": "6045 (388) ng/mL"},
      {"measurement": "Concentration of bendamustine in rat plasma, Mean (SEM)", "setting": "[1]; 0.25 h post injection", "value": "2428 (250) ng/mL"},
      {"measurement": "Concentration of bendamustine in rat plasma, Mean (SEM)", "setting": "[1]; 0.5 h post injection", "value": "520 (105) ng/mL"},
      {"measurement": "Concentration of bendamustine in rat plasma, Mean (SEM)", "setting": "[1]; 0.75 h post injection", "value": "145 (35) ng/mL"},
      {"measurement": "Concentration of bendamustine in rat plasma, Mean (SEM)", "setting": "[1]; 1.5 h post injection", "value": "8 (1) ng/mL"},
      {"measurement": "Concentration of bendamustine in rat plasma, Mean (SEM)", "setting": "[1]; 2 h post injection", "value": "2 (1) ng/mL"},
      {"measurement": "Cell growth", "setting": "[2]; Bendamustine 1 uM, pre-incubated in medium 0 h", "value": 100, "unit": "%"},
      {"measurement": "Cell growth", "setting": "[2]; Bendamustine 1 uM, pre-incubated in medium 1 h", "value": 100, "unit": "%"},
      {"measurement": "Cell growth", "setting": "[2]; Bendamustine 1 uM, pre-incubated in medium 4 h", "value": 100, "unit": "%"},
      {"measurement": "Cell growth", "setting": "[2]; Bendamustine 15 uM, pre-incubated in medium 0 h", "value": 83, "unit": "%"},
      {"measurement": "Cell growth", "setting": "[2]; Bendamustine 15 uM, pre-incubated in medium 1 h", "value": 100, "unit": "%"},
      {"measurement": "Cell growth", "setting": "[2]; Bendamustine 15 uM, pre-incubated in medium 4 h", "value": 100, "unit": "%"},
      {"measurement": "Cell growth", "setting": "[2]; Bendamustine 31 uM, pre-incubated in medium 0 h", "value": 70, "unit": "%"},
      {"measurement": "Cell growth", "setting": "[2]; Bendamustine 31 uM, pre-incubated in medium 1 h", "value": 100, "unit": "%"},
      {"measurement": "Cell growth", "setting": "[2]; Bendamustine 31 uM, pre-incubated in medium 4 h", "value": 100, "unit": "%"},
      {"measurement": "Cell growth", "setting": "[2]; Bendamustine 62 uM, pre-incubated in medium 0 h", "value": 46, "unit": "%"},
      {"measurement": "Cell growth", "setting": "[2]; Bendamustine 62 uM, pre-incubated in medium 1 h", "value": 106, "unit": "%"},
      {"measurement": "Cell growth", "setting": "[2]; Bendamustine 62 uM, pre-incubated in medium 4 h", "value": 104, "unit": "%"},
      {"measurement": "Cell growth", "setting": "[2]; Bendamustine 125 uM, pre-incubated in medium 0 h", "value": 11, "unit": "%"},
      {"measurement": "Cell growth", "setting": "[2]; Bendamustine 125 uM, pre-incubated in medium 1 h", "value": 20, "unit": "%"},
      {"measurement": "Cell growth", "setting": "[2]; Bendamustine 125 uM, pre-incubated in medium 4 h", "value": 105, "unit": "%"},
      {"measurement": "Cell growth", "setting": "[2]; Bendamustine 250 uM, pre-incubated in medium 0 h", "value": "−23", "unit": "%"},
      {"measurement": "Cell growth", "setting": "[2]; Bendamustine 250 uM, pre-incubated in medium 1 h", "value": "−45", "unit": "%"},
      {"measurement": "Cell growth", "setting": "[2]; Bendamustine 250 uM, pre-incubated in medium 4 h", "value": 75, "unit": "%"},
      {"measurement": "Cell growth", "setting": "[2]; Bendamustine 500 uM, pre-incubated in medium 0 h", "value": "−87", "unit": "%"},
      {"measurement": "Cell growth", "setting": "[2]; Bendamustine 500 uM, pre-incubated in medium 1 h", "value": "−85", "unit": "%"},
      {"measurement": "Cell growth", "setting": "[2]; Bendamustine 500 uM, pre-incubated in medium 4 h", "value": 8, "unit": "%"},
      {"measurement": "Cell growth", "setting": "[2]; Bendamustine 1000 uM, pre-incubated in medium 0 h", "value": "−98", "unit": "%"},
      {"measurement": "Cell growth", "setting": "[2]; Bendamustine 1000 uM, pre-incubated in medium 1 h", "value": "−102", "unit": "%"},
      {"measurement": "Cell growth", "setting": "[2]; Bendamustine 1000 uM, pre-incubated in medium 4 h", "value": "−99", "unit": "%"},
      {"measurement": "IC50", "setting": "[2]; time of pre-incubation 0 h", "value": 62, "unit": "µM"},
      {"measurement": "IC50", "setting": "[2]; time of pre-incubation 1 h", "value": 106, "unit": "µM"},
      {"measurement": "IC50", "setting": "[2]; time of pre-incubation 4 h", "value": 390, "unit": "µM"},
      {"measurement": "LC50", "setting": "[2]; RPMI8226, change of LC50 (50% death of cells) per hour of pre-incubation in medium", "value": "107 ± 11", "unit": "µM/h"},
      {"measurement": "TGI", "setting": "[2]; RPMI8226, change of TGI (total growth inhibition) per hour of pre-incubation in medium", "value": "98 ± 18", "unit": "µM/h"},
      {"measurement": "IC50", "setting": "[3]", "value": 601, "unit": "µM"},
      {"measurement": "IC50", "setting": "[4]", "value": 254, "unit": "µM"},
      {"measurement": "IC50", "setting": "[5]", "value": 600, "unit": "µM"},
      {"measurement": "IC50", "setting": "[6]", "value": 117, "unit": "µM"}
    ]}
  ]
}
